From ChEMBL document CHEMBL1909046, “DrugMatrix in vitro pharmacology data”

Tests used:
Carbonic anhydrase 2 = Carbonic anhydrase 2 (Homo sapiens, UniProt P00918); experiment: DRUGMATRIX: Carbonic Anhydrase II enzyme inhibition (substrate: 4-Nitrophenyl acetate (4-NPA)); type: tissue-based; conditions: erythrocyte; Not Active = under 50% inhibition at 10 µM
Glycine receptor = Glycine receptor (Rattus norvegicus, UniProt P22771+P24524+P07727+P20781); type: cell membranes, Wistar, Spinal cord, Membrane; also: in other assays of this panel Not Active means under 50% inhibition at 10 µM
Leukotriene C4 synthase = target: T1, Leukotriene C4 synthase (Cavia porcellus, UniProt A6XA80); type: tissue-based, Lung;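 also: enzyme inhibition assay of leukotriene C4 synthase, using LTA4 as the substrate; in other assays of this panel Not Active means under 50% inhibition at 10 µM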
T1 sequence (A6XA80 whole entry): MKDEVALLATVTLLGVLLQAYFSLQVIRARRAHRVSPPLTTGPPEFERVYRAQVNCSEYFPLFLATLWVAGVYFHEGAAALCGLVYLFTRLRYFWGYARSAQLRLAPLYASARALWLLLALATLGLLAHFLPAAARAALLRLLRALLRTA

[1] = target: cGMP-specific 3',5'-cyclic phosphodiesterase (Homo sapiens, UniProt O76074); experiment: DRUGMATRIX: Phosphodiesterase PDE5 enzyme inhibition (substrate: [3H]cGMP + cGMP); type: tissue-based, Platelet; conditions: platelet; Not Active = under 50% inhibition at 10 µM
Progesterone receptor = target: T2, Progesterone receptor (Bos taurus, UniProt Q690N0); experiment: DRUGMATRIX: Progesterone radioligand binding (ligand: [3H] R-5020); type: tissue-based, Uterus; conditions: Not Active = under 50% inhibition at 10 µM
T2 sequence (Q690N0 whole entry): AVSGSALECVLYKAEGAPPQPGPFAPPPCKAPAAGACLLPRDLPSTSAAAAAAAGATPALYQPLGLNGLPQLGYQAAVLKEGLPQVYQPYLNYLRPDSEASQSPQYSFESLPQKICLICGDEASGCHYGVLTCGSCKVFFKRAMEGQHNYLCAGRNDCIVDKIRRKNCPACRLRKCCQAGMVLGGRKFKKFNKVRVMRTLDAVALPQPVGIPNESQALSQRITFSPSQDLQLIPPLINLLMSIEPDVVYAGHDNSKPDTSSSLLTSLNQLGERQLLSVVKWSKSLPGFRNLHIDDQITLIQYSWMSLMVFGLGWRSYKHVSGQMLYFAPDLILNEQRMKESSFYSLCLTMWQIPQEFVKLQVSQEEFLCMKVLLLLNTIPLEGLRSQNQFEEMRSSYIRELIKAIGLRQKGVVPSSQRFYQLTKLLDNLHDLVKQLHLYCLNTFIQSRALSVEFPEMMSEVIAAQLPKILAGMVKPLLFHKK

Interstitial collagenase = target: T3, Interstitial collagenase (Homo sapiens, UniProt P03956); experiment: biochemical; type: tissue-based, Rheumatoid synovial fibroblasts;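 also: MMP-1 enzyme inhibition assay using a peptide substrate; in other assays of this panel Not Active means under 50% inhibition at 10 µM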
T3 sequence (P03956 whole entry): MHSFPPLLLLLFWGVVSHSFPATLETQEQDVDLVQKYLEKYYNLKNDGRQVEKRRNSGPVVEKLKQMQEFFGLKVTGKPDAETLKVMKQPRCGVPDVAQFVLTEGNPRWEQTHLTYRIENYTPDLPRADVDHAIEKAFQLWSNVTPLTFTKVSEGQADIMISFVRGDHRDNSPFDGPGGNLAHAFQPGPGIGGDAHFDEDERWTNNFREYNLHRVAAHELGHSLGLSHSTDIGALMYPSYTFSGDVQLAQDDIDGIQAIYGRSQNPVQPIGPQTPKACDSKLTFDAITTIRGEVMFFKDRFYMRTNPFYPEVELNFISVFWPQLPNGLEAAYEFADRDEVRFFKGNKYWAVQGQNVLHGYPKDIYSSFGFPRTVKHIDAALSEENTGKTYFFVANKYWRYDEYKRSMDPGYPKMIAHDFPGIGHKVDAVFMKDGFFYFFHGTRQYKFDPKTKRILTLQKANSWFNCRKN

[2] = target: Mitogen-activated protein kinase 3 (Homo sapiens, UniProt P27361); experiment: DRUGMATRIX: Protein Serine/Threonine Kinase, ERK1 enzyme inhibition (substrate: Myelin Basic Protein); set-up: species or system Escherichia coli; conditions: Not Active = under 50% inhibition at 10 µM
Sequence of Mitogen-activated protein kinase 3 (P27361 whole entry): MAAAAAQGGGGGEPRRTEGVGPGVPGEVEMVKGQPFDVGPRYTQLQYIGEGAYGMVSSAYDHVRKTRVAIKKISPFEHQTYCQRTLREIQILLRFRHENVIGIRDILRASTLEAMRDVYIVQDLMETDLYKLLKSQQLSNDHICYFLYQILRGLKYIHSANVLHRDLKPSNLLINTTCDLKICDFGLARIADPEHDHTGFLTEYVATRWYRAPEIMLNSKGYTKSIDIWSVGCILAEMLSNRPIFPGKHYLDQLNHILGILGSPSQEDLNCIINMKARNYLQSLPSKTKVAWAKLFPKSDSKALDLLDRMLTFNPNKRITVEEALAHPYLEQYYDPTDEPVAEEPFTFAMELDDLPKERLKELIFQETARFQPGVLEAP

CCCOc1ccc(C(=O)OCCN(CC)CC)cc1N [PROPARACAINE]
Not Active: IC50 (Carbonic anhydrase 2) | IC50 (Glycine receptor) | IC50 (Leukotriene C4 synthase) | IC50 [1] | IC50 (Progesterone receptor) | IC50 (Interstitial collagenase) | IC50 [2]

CC(C)c1cccc(C(C)C)c1O [PROPOFOL]
Not Active: IC50 (Carbonic anhydrase 2) | IC50 (Glycine receptor) | IC50 (Leukotriene C4 synthase) | IC50 [1] | IC50 (Progesterone receptor) | IC50 (Interstitial collagenase) | IC50 [2]

C[C@@H]1O[C@@H](O[C@@H]2C=C3CC[C@@H]4[C@H](CC[C@]5(C)[C@@H](c6ccc(=O)oc6)CC[C@]45O)[C@@]3(C)CC2)[C@H](O)[C@H](O)[C@H]1O [PROSCILLARIDIN]
Not Active: IC50 (Carbonic anhydrase 2) | IC50 (Glycine receptor) | IC50 (Leukotriene C4 synthase) | IC50 [1] | IC50 (Progesterone receptor) | IC50 (Interstitial collagenase) | IC50 [2]

Oc1cccc(O)c1O [PYROGALLOL]
Not Active: IC50 (Carbonic anhydrase 2) | IC50 (Glycine receptor) | IC50 (Leukotriene C4 synthase) | IC50 [1] | IC50 (Progesterone receptor) | IC50 (Interstitial collagenase) | IC50 [2]

AURANOFIN
Not Active: IC50 (Carbonic anhydrase 2) | Ki (Carbonic anhydrase 2) | IC50 (Glycine receptor) | Ki (Glycine receptor) | IC50 (Leukotriene C4 synthase) | Ki (Leukotriene C4 synthase) | IC50 [1] | Ki [1] | IC50 (Progesterone receptor) | Ki (Progesterone receptor) | IC50 (Interstitial collagenase) | Ki (Interstitial collagenase) | IC50 [2] | Ki [2]

GADOPENTETATE DIMEGLUMINE
Not Active: IC50 (Carbonic anhydrase 2) | Ki (Carbonic anhydrase 2) | IC50 (Glycine receptor) | Ki (Glycine receptor) | IC50 (Leukotriene C4 synthase) | Ki (Leukotriene C4 synthase) | IC50 [1] | Ki [1] | IC50 (Progesterone receptor) | Ki (Progesterone receptor) | IC50 (Interstitial collagenase) | Ki (Interstitial collagenase) | IC50 [2] | Ki [2]

GENTAMICIN
Not Active: IC50 (Carbonic anhydrase 2) | Ki (Carbonic anhydrase 2) | IC50 (Glycine receptor) | Ki (Glycine receptor) | IC50 (Leukotriene C4 synthase) | Ki (Leukotriene C4 synthase) | IC50 [1] | Ki [1] | IC50 (Progesterone receptor) | Ki (Progesterone receptor) | IC50 (Interstitial collagenase) | Ki (Interstitial collagenase) | IC50 [2] | Ki [2]

GRAMICIDIN
Not Active: IC50 (Carbonic anhydrase 2) | Ki (Carbonic anhydrase 2) | IC50 (Glycine receptor) | Ki (Glycine receptor) | IC50 (Leukotriene C4 synthase) | Ki (Leukotriene C4 synthase) | IC50 [1] | Ki [1] | IC50 (Progesterone receptor) | Ki (Progesterone receptor) | IC50 (Interstitial collagenase) | Ki (Interstitial collagenase) | IC50 [2] | Ki [2]

NYSTATIN
Not Active: IC50 (Carbonic anhydrase 2) | Ki (Carbonic anhydrase 2) | IC50 (Glycine receptor) | Ki (Glycine receptor) | IC50 (Leukotriene C4 synthase) | Ki (Leukotriene C4 synthase) | IC50 [1] | Ki [1] | IC50 (Progesterone receptor) | Ki (Progesterone receptor) | IC50 (Interstitial collagenase) | Ki (Interstitial collagenase) | IC50 [2] | Ki [2]
